Experimental data reported in patent publication US9328099B2, “Cyanomethylpyrazole carboxamides as janus kinase inhibitors” (Merck Sharp & Dohme Corp., priority 2011, dated 2016).

How the values were obtained:
JAK2 = JAK2 (Homo sapiens (Human), UniProt O60674); assay: Jak Biochemical HTRF Assay, JAK2; conditions: HTRF biochemical assay, GST-tagged catalytic domain; top concentration tested […]
Text: (§1) Jak Biochemical HTRF Assay Protocol
(§2) Subsequent reagent additions employed an Agilent Bravo.

JAK1 = JAK1 (Homo sapiens (Human), UniProt P23458); assay: Jak Biochemical HTRF Assay, JAK1; conditions: HTRF biochemical assay, GST-tagged catalytic domain; top concentration tested […]; read-out: JAK1 IC50
Text: as §1, §2

JAK1, sequence (P23458 875-1153): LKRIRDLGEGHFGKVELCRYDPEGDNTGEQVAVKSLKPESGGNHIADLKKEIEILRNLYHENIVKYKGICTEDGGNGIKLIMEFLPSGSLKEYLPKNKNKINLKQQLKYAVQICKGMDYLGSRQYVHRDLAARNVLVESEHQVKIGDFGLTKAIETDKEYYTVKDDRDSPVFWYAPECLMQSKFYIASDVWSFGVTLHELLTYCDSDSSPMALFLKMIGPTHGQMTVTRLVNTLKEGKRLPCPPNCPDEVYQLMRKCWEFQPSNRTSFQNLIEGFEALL
JAK2, sequence (O60674 849-1124): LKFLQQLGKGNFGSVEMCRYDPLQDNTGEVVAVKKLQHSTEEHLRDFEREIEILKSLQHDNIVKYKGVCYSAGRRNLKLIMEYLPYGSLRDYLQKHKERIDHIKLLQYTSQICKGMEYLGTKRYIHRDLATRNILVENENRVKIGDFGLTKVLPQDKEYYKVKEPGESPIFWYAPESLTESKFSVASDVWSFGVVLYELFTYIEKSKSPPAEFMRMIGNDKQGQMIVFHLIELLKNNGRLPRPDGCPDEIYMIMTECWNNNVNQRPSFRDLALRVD

SMILES: CC(C)(C)OC(=O)N1CC(CC#N)(n2cc(C(N)=O)c(Nc3ccccc3)n2)C1 [Example 2-3, tert-butyl 3-[4-carbamoyl-3-(phenylamino)-1H-pyrazol-1-yl]-3-(cyanomethyl)azetidine-1-carboxylate]
- IC50 (JAK2): 57 nM
- IC50 (JAK1): 8 nM

SMILES: CC(C)(C)OC(=O)N1CCC(CC#N)(n2cc(C(N)=O)c(Nc3cccc(Cn4nnc5ccccc54)c3)n2)CC1 [Example 2-4, tert-butyl 4-(3-{[3-(1H-benzotriazol-1-ylmethyl)phenyl]amino}-4-carbamoyl-1H-pyrazol-1-yl)-4-(cyanomethyl)piperidine-1-carboxylate]
- IC50 (JAK2): 18 nM
- IC50 (JAK1): 0.5 nM

SMILES: CC(C)(C)OC(=O)N1CC(CC#N)(n2cc(C(N)=O)c(Nc3ccc(S(C)(=O)=O)cc3)n2)C1 [Example 2-5, tert-butyl 3-(4-carbamoyl-3-{[4-(methylsulfonyl)phenyl]amino}-1H-pyrazol-1-yl)-3-(cyanomethyl)azetidine-1-carboxylate]
- IC50 (JAK2): 7 nM
- IC50 (JAK1): 0.6 nM

SMILES: CC(C)(C)OC(=O)N1CCC(CC#N)(n2cc(C(N)=O)c(Nc3ccc(C(=O)N4CCS(=O)(=O)CC4)cc3)n2)CC1 [Example 2-6, tert-butyl 4-[4-carbamoyl-3-({4-[(1,1-dioxidothiomorpholin-4-yl)carbonyl]phenyl}amino)-1H-pyrazol-1-yl]-4-(cyanomethyl)piperidine-1-carboxylate]
- IC50 (JAK2): 1 nM
- IC50 (JAK1): 0.5 nM

SMILES: CC(C)(C)OC(=O)N1CCC(CC#N)(n2cc(C(N)=O)c(Nc3ccncc3)n2)CC1 [Example 2-7, tert-butyl 4-[4-carbamoyl-3-(pyridin-4-ylamino)-1H-pyrazol-1-yl]-4-(cyanomethyl)piperidine-1-carboxylate]
- IC50 (JAK2): 10 nM
- IC50 (JAK1): 0.3 nM

SMILES: CC(C)(C)OC(=O)N1CC(CC#N)(n2cc(C(N)=O)c(Nc3ccc(C(=O)N4CCS(=O)(=O)CC4)cc3)n2)C1 [Example 2-8, tert-butyl 3-[4-carbamoyl-3-({4-[(1,1-dioxidothiomorpholin-4-yl)carbonyl]phenyl}amino)-1H-pyrazol-1-yl]-3-(cyanomethyl)azetidine-1-carboxylate]
- IC50 (JAK2): 5 nM
- IC50 (JAK1): 2 nM

SMILES: CCS(=O)(=O)N1CC(CC#N)(n2cc(C(N)=O)c(Nc3ccccc3)n2)C1 [Example 2-12, 1-[3-(cyanomethyl)-1-(ethylsulfonyl)azetidin-3-yl]-3-(phenylamino)-1H-pyrazole-4-carboxamide]
- IC50 (JAK2): 404 nM
- IC50 (JAK1): 115 nM

SMILES: CCS(=O)(=O)N1CC(CC#N)(n2cc(C(N)=O)c(Nc3ccc(C(=O)N4CCS(=O)(=O)CC4)cc3)n2)C1 [Example 2-13, 1-[3-(cyanomethyl)-1-(ethylsulfonyl)azetidin-3-yl]-3-({4-[(1,1-dioxidothiomorpholin-4-yl)carbonyl]phenyl}amino)-1H-pyrazole-4-carboxamide]
- IC50 (JAK2): 38 nM
- IC50 (JAK1): 27 nM

SMILES: CS(=O)(=O)c1ccc(Nc2nn(C3(CC#N)CCCCC3)cc2C(N)=O)cc1 [Example 2-14, 1-[1-(cyanomethyl)cyclohexyl]-3-{[4-(methylsulfonyl)phenyl]amino}-1H-pyrazole-4-carboxamide]
- IC50 (JAK2): 193 nM
- IC50 (JAK1): 20 nM

SMILES: N#CCC1(n2cc(C(N)=O)c(Nc3ccccc3)n2)CCCCC1 [Example 2-15, 1-[1-(cyanomethyl)cyclohexyl]-3-(phenylamino)-1H-pyrazole-4-carboxamide]
- IC50 (JAK2): 92 nM
- IC50 (JAK1): 10 nM

SMILES: CC(C)(C)OC(=O)N1CCC(CC#N)(n2cc(C(N)=O)c(Nc3ccc(S(C)(=O)=O)cc3)n2)C1 (stereo not drawn) [Example 2-16, tert-butyl 3-(4-carbamoyl-3-{[4-(methylsulfonyl)phenyl]amino}-1H-pyrazol-1-yl)-3-(cyanomethyl)pyrrolidine-1-carboxylate]
- IC50 (JAK2): 2 nM
- IC50 (JAK1): 0.2 nM

SMILES: CC(C)(C)OC(=O)N1CCC(CC#N)(n2cc(C(N)=O)c(Nc3ccccc3)n2)C1 (stereo not drawn) [Example 2-17, tert-butyl 3-[4-carbamoyl-3-(phenylamino)-1H-pyrazol-1-yl]-3-(cyanomethyl)pyrrolidine-1-carboxylate]
- IC50 (JAK2): 27 nM
- IC50 (JAK1): 2 nM

SMILES: N#CCC1(n2cc(C(N)=O)c(Nc3ccccc3)n2)COC1 [Example 2-20, 1-[3-(cyanomethyl)oxetan-3-yl]-3-(phenylamino)-1H-pyrazole-4-carboxamide]
- IC50 (JAK2): 241 nM
- IC50 (JAK1): 33 nM

SMILES: N#CC[C@]1(n2cc(C(N)=O)c(Nc3ccccc3)n2)C[C@@H](C#N)C1 [Example 2-21, 1-((1s,3s)-3-cyano-1-(cyanomethyl)cyclobutyl)-3-(phenylamino)-1H-pyrazole-4-carboxamide]
- IC50 (JAK2): 405 nM
- IC50 (JAK1): 31 nM

SMILES: CS(=O)(=O)c1ccc(Nc2nn([C@]3(CC#N)C[C@@H](C#N)C3)cc2C(N)=O)cc1 [Example 2-22, 1-((1r,3r)-3-cyano-1-(cyanomethyl)cyclobutyl)-3-((4-(methylsulfonyl)phenyl)amino)-1H-pyrazole-4-carboxamide]
- IC50 (JAK2): 127 nM
- IC50 (JAK1): 13 nM

SMILES: CC(C)(C)OC(=O)N1CC2(C1)CC(CC#N)(n1cc(C(N)=O)c(Nc3ccccc3)n1)C2 [Example 2-23, tert-butyl 6-[4-carbamoyl-3-(phenylamino)-1H-pyrazol-1-yl]-6-(cyanomethyl)-2-azaspiro[3.3]heptane-2-carboxylate]
- IC50 (JAK2): 1480 nM
- IC50 (JAK1): 198 nM

SMILES: COc1ccc(N2CCC(CC#N)(n3cc(C(N)=O)c(Nc4ccc(F)cc4)n3)CC2)cc1OC [Example 3-1, 1-[4-(Cyanomethyl)-1-(3,4-dimethoxyphenyl)piperidin-4-yl]-3-[(4-fluorophenyl)amino]-1H-pyrazole-4-carboxamide]
- IC50 (JAK2): 154 nM
- IC50 (JAK1): 4 nM

SMILES: N#CCC1(n2cc(C(N)=O)c(Nc3ccc(F)cc3)n2)CCN(c2ccnc3ccccc23)CC1 [Example 3-3, 1-[4-(cyanomethyl)-1-quinolin-4-ylpiperidin-4-yl]-3-[(4-fluorophenyl)amino]-1H-pyrazole-4-carboxamide]
- IC50 (JAK2): 488 nM
- IC50 (JAK1): 5 nM

SMILES: Cc1cc(N2CCC(CC#N)(n3cc(C(N)=O)c(Nc4ccc(F)cc4)n3)CC2)ccn1 [Example 3-4, 1-[4-(cyanomethyl)-1-(2-methylpyridin-4-yl)piperidin-4-yl]-3-[(4-fluorophenyl)amino]-1H-pyrazole-4-carboxamide]
- IC50 (JAK2): 174 nM
- IC50 (JAK1): 8 nM

SMILES: N#CCC1(n2cc(C(N)=O)c(Nc3ccc(F)cc3)n2)CCN(c2cncc(F)c2)CC1 [Example 3-5, 1-[4-(cyanomethyl)-1-(5-fluoropyridin-3-yl)piperidin-4-yl]-3-[(4-fluorophenyl)amino]-1H-pyrazole-4-carboxamide]
- IC50 (JAK2): 4 nM
- IC50 (JAK1): 0.2 nM

SMILES: COc1cc(N2CCC(CC#N)(n3cc(C(N)=O)c(Nc4ccc(F)cc4)n3)CC2)ccn1 [Example 3-6, 1-[4-(cyanomethyl)-1-(2-methoxypyridin-4-yl)piperidin-4-yl]-3-[(4-fluorophenyl)amino]-1H-pyrazole-4-carboxamide]
- IC50 (JAK2): 5 nM
- IC50 (JAK1): 0.2 nM

SMILES: N#CCC1(n2cc(C(N)=O)c(Nc3ccc(F)cc3)n2)CCN(c2cncc(C(F)(F)F)c2)CC1 [Example 3-8, 1-{4-(cyanomethyl)-1-[5-(trifluoromethyl)pyridin-3-yl]piperidin-4-yl}-3-[(4-fluorophenyl)amino]-1H-pyrazole-4-carboxamide]
- IC50 (JAK2): 54 nM
- IC50 (JAK1): 1 nM

SMILES: N#CCC1(n2cc(C(N)=O)c(Nc3ccc(F)cc3)n2)CCN(c2ccc(C(O)C(F)(F)F)cc2)CC1 (stereo not drawn) [Example 3-9, 1-{4-(cyanomethyl)-1-[4-(2,2,2-trifluoro-1-hydroxyethyl)phenyl]piperidin-4-yl}-3-[(4-fluorophenyl)amino]-1H-pyrazole-4-carboxamide]
- IC50 (JAK2): 37 nM
- IC50 (JAK1): 1 nM

SMILES: N#CCC1(n2cc(C(N)=O)c(Nc3ccc(F)cc3)n2)CCN(c2cccc(OCCO)n2)CC1 [Example 3-10, 1-{4-(cyanomethyl)-1-[6-(2-hydroxyethoxy)pyridin-2-yl]piperidin-4-yl}-3-[(4-fluorophenyl)amino]-1H-pyrazole-4-carboxamide]
- IC50 (JAK2): 47 nM
- IC50 (JAK1): 3 nM

SMILES: COc1cc(N2CCC(CC#N)(n3cc(C(N)=O)c(Nc4ccc(F)cc4)n3)CC2)ccc1F [Example 3-11, 1-[4-(cyanomethyl)-1-(4-fluoro-3-methoxyphenyl)piperidin-4-yl]-3-[(4-fluorophenyl)amino]-1H-pyrazole-4-carboxamide]
- IC50 (JAK2): 74 nM
- IC50 (JAK1): 4 nM

SMILES: COc1cc(F)cc(N2CCC(CC#N)(n3cc(C(N)=O)c(Nc4ccc(F)cc4)n3)CC2)c1 [Example 3-12, 1-[4-(cyanomethyl)-1-(3-fluoro-5-methoxyphenyl)piperidin-4-yl]-3-[(4-fluorophenyl)amino]-1H-pyrazole-4-carboxamide]
- IC50 (JAK2): 40 nM
- IC50 (JAK1): 2 nM

SMILES: N#CCC1(n2cc(C(N)=O)c(Nc3ccc(F)cc3)n2)CCN(c2ccc(OC(F)F)nc2)CC1 [Example 3-13, 1-{4-(cyanomethyl)-1-[6-(difluoromethoxy)pyridin-3-yl]piperidin-4-yl}-3-[(4-fluorophenyl)amino]-1H-pyrazole-4-carboxamide]
- IC50 (JAK2): 21 nM
- IC50 (JAK1): 0.7 nM

SMILES: Cc1cc(N2CCC(CC#N)(n3cc(C(N)=O)c(Nc4ccc(F)cc4)n3)CC2)cnc1C [Example 3-14, 1-[4-(cyanomethyl)-1-(5,6-dimethylpyridin-3-yl)piperidin-4-yl]-3-[(4-fluorophenyl)amino]-1H-pyrazole-4-carboxamide]
- IC50 (JAK2): 49 nM
- IC50 (JAK1): 2 nM

SMILES: CC(C)Oc1cccc(N2CCC(CC#N)(n3cc(C(N)=O)c(Nc4ccc(F)cc4)n3)CC2)n1 [Example 3-15, 1-{4-(cyanomethyl)-1-[6-(1-methylethoxy)pyridin-2-yl]piperidin-4-yl}-3-[(4-fluorophenyl)amino]-1H-pyrazole-4-carboxamide]
- IC50 (JAK2): > 1500 nM
- IC50 (JAK1): 191 nM

SMILES: CCOc1cccc(N2CCC(CC#N)(n3cc(C(N)=O)c(Nc4ccc(F)cc4)n3)CC2)n1 [Example 3-16, 1-[4-(cyanomethyl)-1-(6-ethoxypyridin-2-yl)piperidin-4-yl]-3-[(4-fluorophenyl)amino]-1H-pyrazole-4-carboxamide]
- IC50 (JAK2): 861 nM
- IC50 (JAK1): 45 nM
